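Method: 48-hour compound exposure of cells in 96-well plates, five concentrations, linear interpolation of endpoints. TGI: total growth inhibition.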
Tests used:
Assay in all cases: NCI tumour cell line growth inhibition, 48 h
A498 renal = system: A498 renal
A549 NSCLC = system: A549 NSCLC
CAKI-1 renal = system: CAKI-1 renal
CCRF-CEM leukemia = system: CCRF-CEM leukemia
COLO 205 colon = system: COLO 205 colon
DLD-1 colon = system: DLD-1 colon
DMS 114 small cell lung = system: DMS 114 small cell lung
DMS 273 small cell lung = system: DMS 273 small cell lung
EKVX NSCLC = system: EKVX NSCLC
HCC-2998 colon = system: HCC-2998 colon
HCT-116 colon = system: HCT-116 colon
HCT-15 colon = system: HCT-15 colon
HL-60(TB) leukemia = system: HL-60(TB) leukemia
HOP-18 NSCLC = system: HOP-18 NSCLC
HOP-62 NSCLC = system: HOP-62 NSCLC
HOP-92 NSCLC = system: HOP-92 NSCLC
HT29 colon = system: HT29 colon
IGROV1 ovarian = system: IGROV1 ovarian
K-562 leukemia = system: K-562 leukemia
KM12 colon = system: KM12 colon
KM20L2 colon = system: KM20L2 colon
LOX IMVI melanoma = system: LOX IMVI melanoma
M19-MEL melanoma = system: M19-MEL melanoma
MCF7 breast = system: MCF7 breast
MOLT-4 leukemia = system: MOLT-4 leukemia
NCI-H226 lung = system: NCI-H226 lung
NCI-H23 lung = system: NCI-H23 lung
NCI-H460 lung = system: NCI-H460 lung
NCI-H522 lung = system: NCI-H522 lung
NCI/ADR-RES ovarian = system: NCI/ADR-RES ovarian
OVCAR-3 ovarian = system: OVCAR-3 ovarian
OVCAR-4 ovarian = system: OVCAR-4 ovarian
OVCAR-5 ovarian = system: OVCAR-5 ovarian
OVCAR-8 ovarian = system: OVCAR-8 ovarian
P388 leukemia = system: P388 leukemia
P388/ADR leukemia = system: P388/ADR leukemia
RPMI-8226 leukemia = system: RPMI-8226 leukemia
RXF 393 renal = system: RXF 393 renal
SF-268 CNS = system: SF-268 CNS
SF-295 CNS = system: SF-295 CNS
SF-539 CNS = system: SF-539 CNS
SK-MEL-2 melanoma = system: SK-MEL-2 melanoma
SK-MEL-28 melanoma = system: SK-MEL-28 melanoma
SK-MEL-5 melanoma = system: SK-MEL-5 melanoma
SK-OV-3 ovarian = system: SK-OV-3 ovarian
SN12C renal = system: SN12C renal
SN12K1 renal = system: SN12K1 renal
SNB-19 CNS = system: SNB-19 CNS
SNB-75 CNS = system: SNB-75 CNS
SNB-78 CNS = system: SNB-78 CNS
SW-620 colon = system: SW-620 colon
U251 CNS = system: U251 CNS
UACC-257 melanoma = system: UACC-257 melanoma
UACC-62 melanoma = system: UACC-62 melanoma
UO-31 renal = system: UO-31 renal
XF 498 CNS = system: XF 498 CNS
786-0 renal = system: 786-0 renal
ACHN renal = system: ACHN renal
BT-549 breast = system: BT-549 breast
DU-145 prostate = system: DU-145 prostate
HS 578T breast = system: HS 578T breast
LXFL 529 NSCLC = system: LXFL 529 NSCLC
M14 melanoma = system: M14 melanoma
MALME-3M melanoma = system: MALME-3M melanoma
MDA-MB-231 breast = system: MDA-MB-231 breast
MDA-MB-435 = system: MDA-MB-435
MDA-N = system: MDA-N
PC-3 prostate = system: PC-3 prostate
RXF-631 renal = system: RXF-631 renal
SR leukemia = system: SR leukemia
T-47D breast = system: T-47D breast
TK-10 renal = system: TK-10 renal

CC1=C2C(O)C(C(C)C(=O)N(C)C)CCC2(C)C=CC1=O (stereo not drawn)
TGI (A498 renal): > 100 µM
TGI (A549 NSCLC): > 100 µM
TGI (CAKI-1 renal): > 100 µM
TGI (CCRF-CEM leukemia): > 100 µM
TGI (COLO 205 colon): > 100 µM
TGI (DLD-1 colon): > 100 µM
TGI (DMS 114 small cell lung): > 100 µM
TGI (DMS 273 small cell lung): > 100 µM
TGI (EKVX NSCLC): > 100 µM
TGI (HCC-2998 colon): > 100 µM
TGI (HCT-116 colon): > 100 µM
TGI (HCT-15 colon): > 100 µM
TGI (HL-60(TB) leukemia): > 100 µM
TGI (HOP-18 NSCLC): > 100 µM
TGI (HOP-62 NSCLC): > 100 µM
TGI (HOP-92 NSCLC): > 100 µM
TGI (HT29 colon): > 100 µM
TGI (IGROV1 ovarian): > 100 µM
TGI (K-562 leukemia): > 100 µM
TGI (KM12 colon): > 100 µM
TGI (KM20L2 colon): > 100 µM
TGI (LOX IMVI melanoma): > 100 µM
TGI (M19-MEL melanoma): > 100 µM
TGI (MCF7 breast): > 100 µM
TGI (MOLT-4 leukemia): > 100 µM
TGI (NCI-H226 lung): > 100 µM
TGI (NCI-H23 lung): > 100 µM
TGI (NCI-H460 lung): > 100 µM
TGI (NCI-H522 lung): > 100 µM
TGI (NCI/ADR-RES ovarian): > 100 µM
TGI (OVCAR-3 ovarian): > 100 µM
TGI (OVCAR-4 ovarian): > 100 µM
TGI (OVCAR-5 ovarian): > 100 µM
TGI (OVCAR-8 ovarian): > 100 µM
TGI (P388 leukemia): > 100 µM
TGI (P388/ADR leukemia): > 100 µM
TGI (RPMI-8226 leukemia): > 100 µM
TGI (RXF 393 renal): > 100 µM
TGI (SF-268 CNS): > 100 µM
TGI (SF-295 CNS): > 100 µM
TGI (SF-539 CNS): > 100 µM
TGI (SK-MEL-2 melanoma): > 100 µM
TGI (SK-MEL-28 melanoma): > 100 µM
TGI (SK-MEL-5 melanoma): > 100 µM
TGI (SK-OV-3 ovarian): > 100 µM
TGI (SN12C renal): > 100 µM
TGI (SN12K1 renal): > 100 µM
TGI (SNB-19 CNS): > 100 µM
TGI (SNB-75 CNS): > 100 µM
TGI (SNB-78 CNS): > 100 µM
TGI (SW-620 colon): > 100 µM
TGI (U251 CNS): > 100 µM
TGI (UACC-257 melanoma): > 100 µM
TGI (UACC-62 melanoma): > 100 µM
TGI (UO-31 renal): > 100 µM
TGI (XF 498 CNS): > 100 µM

CNC(=O)OCc1nc(SSC(C)(C)C)n(C)c1COC(=O)NC
TGI (786-0 renal): 9.12 µM
TGI (A498 renal): 20.4 µM
TGI (A549 NSCLC): 28 µM
TGI (ACHN renal): 8.71 µM
TGI (BT-549 breast): 2.83 µM
TGI (CAKI-1 renal): 3.94 µM
TGI (CCRF-CEM leukemia): 4.54 µM
TGI (COLO 205 colon): 3.28 µM
TGI (DLD-1 colon): 3.18 µM
TGI (DMS 114 small cell lung): 4.15 µM
TGI (DMS 273 small cell lung): 17.3 µM
TGI (DU-145 prostate): 33.3 µM
TGI (EKVX NSCLC): 20.7 µM
TGI (HCC-2998 colon): 22.4 µM
TGI (HCT-116 colon): 3.26 µM
TGI (HCT-15 colon): 4.14 µM
TGI (HL-60(TB) leukemia): 2.66 µM
TGI (HOP-18 NSCLC): 10.8 µM
TGI (HOP-62 NSCLC): 31.1 µM
TGI (HOP-92 NSCLC): 3.67 µM
TGI (HS 578T breast): 7.9 µM
TGI (HT29 colon): 13.3 µM
TGI (IGROV1 ovarian): 22.9 µM
TGI (K-562 leukemia): 7.06 µM
TGI (KM12 colon): 38.8 µM
TGI (KM20L2 colon): 25.6 µM
TGI (LOX IMVI melanoma): 8.61 µM
TGI (LXFL 529 NSCLC): 2.74 µM
TGI (M14 melanoma): 4.13 µM
TGI (M19-MEL melanoma): 13.6 µM
TGI (MALME-3M melanoma): 3.76 µM
TGI (MCF7 breast): 15.5 µM
TGI (MDA-MB-231 breast): 6.95 µM
TGI (MDA-MB-435): 16 µM
TGI (MDA-N): 6.59 µM
TGI (MOLT-4 leukemia): 4.16 µM
TGI (NCI-H226 lung): 28.3 µM
TGI (NCI-H23 lung): 8.11 µM
TGI (NCI-H460 lung): 26.6 µM
TGI (NCI-H522 lung): 2.69 µM
TGI (NCI/ADR-RES ovarian): 20.3 µM
TGI (OVCAR-3 ovarian): 4.81 µM
TGI (OVCAR-4 ovarian): 4.3 µM
TGI (OVCAR-5 ovarian): 21 µM
TGI (OVCAR-8 ovarian): 5.35 µM
TGI (P388 leukemia): > 100 µM
TGI (P388/ADR leukemia): > 28.2 µM
TGI (PC-3 prostate): 21 µM
TGI (RPMI-8226 leukemia): 8.92 µM
TGI (RXF 393 renal): 2.84 µM
TGI (RXF-631 renal): 3.42 µM
TGI (SF-268 CNS): 16.7 µM
TGI (SF-295 CNS): 31.7 µM
TGI (SF-539 CNS): 10.6 µM
TGI (SK-MEL-2 melanoma): 19.5 µM
TGI (SK-MEL-28 melanoma): 4.67 µM
TGI (SK-MEL-5 melanoma): 16.5 µM
TGI (SK-OV-3 ovarian): 31.1 µM
TGI (SN12C renal): 13.7 µM
TGI (SN12K1 renal): 14.9 µM
TGI (SNB-19 CNS): 33.9 µM
TGI (SNB-75 CNS): 22.4 µM
TGI (SNB-78 CNS): 21.2 µM
TGI (SR leukemia): 5.54 µM
TGI (SW-620 colon): 3.67 µM
TGI (T-47D breast): 7.4 µM
TGI (TK-10 renal): 13 µM
TGI (U251 CNS): 25.6 µM
TGI (UACC-257 melanoma): 7.64 µM
TGI (UACC-62 melanoma): 5.09 µM
TGI (UO-31 renal): 20.3 µM
TGI (XF 498 CNS): 5.47 µM

CN(C)CCNC(=O)c1cccc2c(=O)c3ccccc3oc12
TGI (A498 renal): 52.8 µM
TGI (A549 NSCLC): > 100 µM
TGI (CCRF-CEM leukemia): > 100 µM
TGI (COLO 205 colon): 19.4 µM
TGI (DLD-1 colon): > 100 µM
TGI (DMS 114 small cell lung): > 69.8 µM
TGI (DMS 273 small cell lung): > 91.2 µM
TGI (EKVX NSCLC): > 86.9 µM
TGI (HCC-2998 colon): > 100 µM
TGI (HCT-116 colon): > 100 µM
TGI (HCT-15 colon): > 100 µM
TGI (HL-60(TB) leukemia): > 90.6 µM
TGI (HOP-18 NSCLC): > 100 µM
TGI (HOP-62 NSCLC): 97.5 µM
TGI (HOP-92 NSCLC): 60.1 µM
TGI (HT29 colon): 98.7 µM
TGI (IGROV1 ovarian): > 100 µM
TGI (K-562 leukemia): > 100 µM
TGI (KM12 colon): > 100 µM
TGI (KM20L2 colon): > 100 µM
TGI (LOX IMVI melanoma): 43.4 µM
TGI (M19-MEL melanoma): 56.7 µM
TGI (MALME-3M melanoma): 64.3 µM
TGI (MCF7 breast): 74 µM
TGI (MOLT-4 leukemia): > 100 µM
TGI (NCI-H226 lung): 76.5 µM
TGI (NCI-H23 lung): > 100 µM
TGI (NCI-H460 lung): > 79.5 µM
TGI (NCI/ADR-RES ovarian): > 79.9 µM
TGI (OVCAR-3 ovarian): > 100 µM
TGI (OVCAR-4 ovarian): > 90.5 µM
TGI (OVCAR-5 ovarian): > 82.9 µM
TGI (OVCAR-8 ovarian): > 83.5 µM
TGI (P388 leukemia): 52.2 µM
TGI (P388/ADR leukemia): 73.2 µM
TGI (RPMI-8226 leukemia): > 87.1 µM
TGI (RXF 393 renal): > 100 µM
TGI (SF-268 CNS): > 100 µM
TGI (SF-295 CNS): 98.9 µM
TGI (SF-539 CNS): > 100 µM
TGI (SK-MEL-2 melanoma): 98.9 µM
TGI (SK-MEL-28 melanoma): > 100 µM
TGI (SK-MEL-5 melanoma): 60.5 µM
TGI (SK-OV-3 ovarian): > 100 µM
TGI (SN12C renal): > 78.7 µM
TGI (SN12K1 renal): 47.5 µM
TGI (SNB-19 CNS): 97.7 µM
TGI (SNB-75 CNS): > 87.3 µM
TGI (SNB-78 CNS): > 100 µM
TGI (SW-620 colon): > 100 µM
TGI (U251 CNS): > 100 µM
TGI (UACC-257 melanoma): 74.4 µM
TGI (UACC-62 melanoma): > 76.2 µM
TGI (UO-31 renal): 55 µM
TGI (XF 498 CNS): > 93.9 µM

— PubChem BioAssay (NCI)
